Assay [1] concerns the target T1, KRAS-WT and SOS1 proteins (Homo sapiens, UniProt Q07889).
T1 construct: purchased Cisbio 63ADK000CB15PEG
T1 sequence (Q07889 1-1333): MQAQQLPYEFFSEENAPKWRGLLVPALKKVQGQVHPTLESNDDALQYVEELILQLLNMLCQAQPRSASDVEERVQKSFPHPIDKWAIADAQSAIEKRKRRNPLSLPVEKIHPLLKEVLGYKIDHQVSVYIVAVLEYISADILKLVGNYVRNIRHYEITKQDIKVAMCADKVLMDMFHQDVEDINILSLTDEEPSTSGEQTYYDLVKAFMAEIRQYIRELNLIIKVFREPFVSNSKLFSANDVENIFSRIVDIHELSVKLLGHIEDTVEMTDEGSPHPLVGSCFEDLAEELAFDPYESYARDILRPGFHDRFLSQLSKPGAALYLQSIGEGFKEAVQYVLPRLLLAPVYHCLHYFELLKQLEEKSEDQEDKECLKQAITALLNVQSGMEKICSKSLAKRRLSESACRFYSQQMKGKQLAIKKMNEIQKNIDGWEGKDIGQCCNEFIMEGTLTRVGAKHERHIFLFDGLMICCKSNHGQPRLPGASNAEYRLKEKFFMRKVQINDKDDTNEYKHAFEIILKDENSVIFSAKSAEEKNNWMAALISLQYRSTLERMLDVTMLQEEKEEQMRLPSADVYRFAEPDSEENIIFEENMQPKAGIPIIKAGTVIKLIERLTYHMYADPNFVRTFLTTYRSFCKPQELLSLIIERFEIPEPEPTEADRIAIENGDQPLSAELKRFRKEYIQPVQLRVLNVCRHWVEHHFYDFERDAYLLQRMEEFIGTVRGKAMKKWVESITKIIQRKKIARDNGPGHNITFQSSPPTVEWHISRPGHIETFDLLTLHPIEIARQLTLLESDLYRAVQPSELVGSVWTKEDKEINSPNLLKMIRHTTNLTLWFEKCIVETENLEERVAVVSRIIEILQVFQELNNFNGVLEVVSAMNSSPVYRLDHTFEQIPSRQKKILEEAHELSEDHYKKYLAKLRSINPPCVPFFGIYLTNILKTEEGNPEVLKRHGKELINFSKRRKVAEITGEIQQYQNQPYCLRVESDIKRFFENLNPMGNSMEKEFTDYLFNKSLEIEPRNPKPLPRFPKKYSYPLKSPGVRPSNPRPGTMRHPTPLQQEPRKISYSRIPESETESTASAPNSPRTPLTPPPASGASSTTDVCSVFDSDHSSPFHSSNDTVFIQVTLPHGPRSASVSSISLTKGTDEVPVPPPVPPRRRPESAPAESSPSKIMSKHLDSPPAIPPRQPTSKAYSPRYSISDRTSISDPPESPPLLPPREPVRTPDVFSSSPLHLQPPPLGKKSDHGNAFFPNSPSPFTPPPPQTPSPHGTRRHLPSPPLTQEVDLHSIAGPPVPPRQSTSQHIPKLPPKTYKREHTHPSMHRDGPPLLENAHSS
Description: KRAS-WT/SOS1 binding assay (HTRF). The note with it: Tag1-SOS1 / Tag2-KRAS-WT, 10 μM GTP, read-out: Activity Data in Kras: SOS1 Assay, Wild Type. (In general: In TR-FRET formats the signal depends on donor and acceptor labels being close together.)

Assay [2] deals with T2, KRAS G12D and SOS1 proteins (Homo sapiens, UniProt Q07889).
T2 construct: purchased Cisbio 63ADK000CB17PEG
T2 sequence (Q07889 1-1333): T1 sequence (Q07889 1-1333)
Description: KRAS-G12D/SOS1 binding assay (HTRF). The note with it: Tag1-SOS1 / Tag2-KRAS G12D, 10 μM GTP.

In the case of `COCC(F)(F)c1cccc([C@@H](C)Nc2nc(C)nc3c2cc(-c2ccc(=O)n(C)c2)c2c3cnn2C)c1` [Example 31, (R)-5-(4-((1-(3-(1,1-difluoro-2-methoxyethyl)phenyl)ethyl)amino)-2,7-dimethyl-7H-pyrazolo[3,4-h]quinazolin-6-yl)-1-methylpyridin-2(1H)-one], the IC50 in assay [1] and in assay [2] was less than 100 nM in each case.
Turning to `C[C@@H](Nc1nc2ccnn2c2cc(=O)n([C@H]3CCOC3)cc12)c1cc(N)cc(C(F)(F)F)c1` [Example 70, 5-(((R)-1-(3-amino-5-(trifluoromethyl)phenyl)ethyl)amino)-7-((S)-tetrahydrofuran-3-yl)pyrazolo[1,5-a]pyrido[3,4-e]pyrimidin-8(7H)-one], the IC50 in assay [1] and in assay [2] was less than 100 nM throughout.
With `CC(=O)N1CCC(c2cc3c(N[C@H](C)c4cccc5c4CCC5(F)F)nc(C)nc3n3cnnc23)CC1` [Example 7, (R)-1-(4-(4-((1-(1,1-difluoro-2,3-dihydro-1H-inden-4-yl)ethyl)amino)-2-methyl-[1,2,4]triazolo[4′,3′:1,6]pyrido[2,3-d]pyrimidin-6-yl)piperidin-1-yl)ethanone], the IC50 in assay [1] and in assay [2] was less than 100 nM each time.
As to `CC(=O)N1CCC(Oc2cc3c(N[C@H](C)c4cccc5c4CCC5(F)F)nc(C)nc3c3cnn(C)c23)CC1` [Example 40, (R)-1-(4-((4-((1-(1,1-difluoro-2,3-dihydro-1H-inden-4-yl)ethyl)amino)-2,7-dimethyl-7H-pyrazolo[3,4-h]quinazolin-6-yl)oxy)piperidin-1-yl)ethan-1-one], the IC50 in assay [1] and in assay [2] was less than 100 nM throughout.
Consider `CNCc1ccccc1-c1ccc([C@@H](C)Nc2nc3ccnn3c3cc(=O)n(C4(C)CC4)cc23)s1` [Example 74, 8-{[(1R)-1-(5-{2-[(methylamino)methyl]phenyl}thiophen-2-yl)ethyl]amino}-11-(1-methylcyclopropyl)-2,3,7,11-tetraazatricyclo[7.4.0.0^{2,6}]trideca-1(13),3,5,7,9-pentaen-12-one], for which the IC50 in assay [1] and in assay [2] was less than 100 nM each time.
As to `Cc1nc(N[C@H](C)c2cccc(C(F)(F)CO)c2)c2cc(N3CC[C@H](O)C3)c3c(cnn3C)c2n1` [Example 43, (3S)-1-(4-{[(1R)-1-[3-(1,1-difluoro-2-hydroxyethyl)phenyl]ethyl]amino}-2,7-dimethyl-7H-pyrazolo[3,4-h]quinazolin-6-yl)pyrrolidin-3-ol], the IC50 in assay [1] and in assay [2] was less than 100 nM each time.
As to `C[C@@H](Nc1nc(C(F)(F)F)nc2c1cc(-c1ccc(=O)n(C)c1)c1c2cnn1C)c1cccc(C(F)(F)CO)c1` [Example 32, (R)-5-(4-((1-(3-(1,1-difluoro-2-hydroxyethyl)phenyl)ethyl)amino)-7-methyl-2-(trifluoromethyl)-7H-pyrazolo[3,4-h]quinazolin-6-yl)-1-methylpyridin-2(1H)-one], the IC50 in assay [1] and in assay [2] was 100 to 500 nM throughout.
As for `Cc1nc(N[C@H](C)c2cccc(C(F)(F)CO)c2)c2cc(-c3ccc(=O)n(C)c3)c3c(cnn3C)c2n1` [Example 24, (R)-5-(4-((1-(3-(1,1-difluoro-2-hydroxyethyl)phenyl)ethyl)amino)-2,7-dimethyl-7H-pyrazolo[3,4-h]quinazolin-6-yl)-1-methylpyridin-2(1H)-one], the IC50 in assay [1] and in assay [2] was less than 100 nM throughout.
As to `C[C@@H](Nc1nc2ccnn2c2cc(=O)n(C3CCN(C)CC3)cc12)c1cccc(C(F)(F)CO)c1` [Example 76, (R)-5-((1-(3-(1,1-difluoro-2-hydroxyethyl)phenyl)ethyl)amino)-7-(1-methylpiperidin-4-yl)pyrazolo[1,5-a]pyrido[3,4-e]pyrimidin-8(7H)-one], the IC50 in assay [1] and in assay [2] was less than 100 nM in each case.
Regarding `C[C@@H](Nc1nc2ccnn2c2cc(=O)n(C3CC(F)(F)C3)cc12)c1cc(F)cc(C(F)(F)CO)c1` [Example 73, (R)-5-((1-(3-(1,1-difluoro-2-hydroxyethyl)-5-fluorophenyl)ethyl)amino)-7-(3,3-difluorocyclobutyl)pyrazolo[1,5-a]pyrido[3,4-e]pyrimidin-8(7H)-one], the IC50 in assay [1] and in assay [2] was less than 100 nM throughout.
For `Cc1nc(N[C@H](C)c2cccc(C(F)(F)CO)c2)c2cc(N3CC[C@@H](O)C3)c3c(cnn3C)c2n1` [Example 44, (3R)-1-(4-{[(1R)-1-[3-(1,1-difluoro-2-hydroxyethyl)phenyl]ethyl]amino}-2,7-dimethyl-7H-pyrazolo[3,4-h]quinazolin-6-yl)pyrrolidin-3-ol], the IC50 in assay [1] and in assay [2] was less than 100 nM throughout.
For the compound `Cc1nc(N[C@H](C)c2cccc3c2CCC3(F)F)c2cc(O[C@H]3CCOC3)c3c(cnn3C)c2n1` [Example 36, N-((R)-1-(1,1-difluoro-2,3-dihydro-1H-inden-4-yl)ethyl)-2,7-dimethyl-6-(((S)-tetrahydrofuran-3-yl)oxy)-7H-pyrazolo[3,4-h]quinazolin-4-amine], the IC50 in assay [1] and in assay [2] was less than 100 nM in each case.
On to `COCC(=O)N1CCC(c2cc3c(N[C@H](C)c4cccc5c4CCC5(F)F)nc(C)nc3n3cnnc23)CC1` [Example 10, (R)-1-(4-(4-((1-(1,1-difluoro-2,3-dihydro-1H-inden-4-yl)ethyl)amino)-2-methyl-[1,2,4]triazolo[4′,3′:1,6]pyrido[2,3-d]pyrimidin-6-yl)piperidin-1-yl)-2-methoxyethan-1-one], for which the IC50 in assay [1] and in assay [2] was less than 100 nM each time.
With `CC(=O)N1CCC(c2cc3c(N[C@H](C)c4cccc(C(F)(F)CO)c4)nc(C)nc3n3cnnc23)CC1` [Example 12, (R)-1-(4-(4-((1-(3-(1,1-difluoro-2-hydroxyethyl)phenyl)ethyl)amino)-2-methyl-[1,2,4]triazolo[4′,3′:1,6]pyrido[2,3-d]pyrimidin-6-yl)piperidin-1-yl)ethan-1-one], the IC50 in assay [1] and in assay [2] was less than 100 nM each time.
As for `C[C@@H](Nc1nc2ccnn2c2cc(=O)n([C@H]3CCOC3)cc12)c1cccc(C(F)(F)F)c1` [Example 69, 7-((S)-tetrahydrofuran-3-yl)-5-(((R)-1-(3-(trifluoromethyl)phenyl)ethyl)amino)pyrazolo[1,5-a]pyrido[3,4-e]pyrimidin-8(7H)-one], the IC50 in assay [1] and in assay [2] was 100 to 500 nM in each case.

For the origin of these results see patent publication US20240109891A1, “NOVEL SUBSTITUTED TRICYCLIC AZA-HETEROCYCLES AS SOS1 INHIBITORS” (Viva Star Biosciences (Suzhou) Co., Ltd., priority 2021, published 2024).
